Test results published in ChEMBL document CHEMBL3860027, “α-Pyrones with Diverse Hydroxy Substitutions from Three Marine-Derived Nocardiopsis Strains” (2016).
Converted amounts (≈) assume the structure as drawn.

System: Bacillus subtilis
Experiment: Antibacterial activity against Bacillus subtilis SCSIO BS01 by broth microdilution method
Type: functional

Row | MIC [µg/mL] | SMILES
1 | 64 (≈ 385 µM) | CC[C@@H](C)c1ccc(C)c(=O)o1
2 | 64 (≈ 355 µM) | CCc1ccc(CC(C)C)c(=O)o1

System: Micrococcus luteus
Experiment: Antibacterial activity against Micrococcus luteus SCSIO ML01 by broth microdilution method
Type: functional

Row | SMILES | MIC [µg/mL]
3 | CCc1ccc(CC(C)(C)O)c(=O)o1 | 32 (≈ 163 µM)
4 | CCc1ccc(CC(C)C)c(=O)o1 | 32 (≈ 178 µM)

The next lines start with the values.

Row | MIC [µg/mL] | SMILES
5 | 16 (≈ 81.5 µM) | CC(C)Cc1ccc(C(C)O)oc1=O (racemic)
6 | 32 (≈ 178 µM) | CCc1ccc([C@H](C)CC)oc1=O
